Here are results for 2 compounds from patent publication US20240207283A1, “WATER SOLUBLE COMPLEX COMPOSITIONS AND METHODS THEREOF” (VETERINARY PHARMACY CORPORATION, priority 2021, published 2024).

For data set [1] the following is noted: generally known; cited from earlier work.
For data set [2] the following is noted: hydrotrope niacinamide.

As to `Cc1cnc(NC(=O)C2=C(O)c3ccccc3S(=O)(=O)N2C)s1` [meloxicam], in data set [1], the solubility in methanol result is given as “slightly soluble in methanol” and the solubility in water result is listed as “insoluble in water”.
In the case of `CN1C(C(=O)Nc2ccccn2)=C(O)c2ccccc2S1(=O)=O` [piroxicam], in data set [2], the “pH above which the clear solution begins to form” value is given as “above 9.0”.
